Results from patent US12678446B2 (PFIZER INC., priority 2020, dated 2026).
pEC50: −log10 of the molar value. Where two headings read alike, the source gives them in different places.

Key:
[1] = system: RSV (RSV A2 ECACC, 0709161v); experiment: RSV plaque reduction assay; type: cell-based, respiratory syncytial virus; details: mean of at least two experiments unless noted (n = 1)
Procedure, shortened: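 Hep-G2 monolayers infected with 100 PFU/well RSV A2 premixed with eight serial compound dilutions (2 h, 37° C.), then kept 2 days under CMC overlay with compound in DMEM/2% FBS. Plaques immunostained (HRP/TrueBlue) and counted; % infection versus virus control gives EC50, mean of at least two experiments, rounded.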

[2] = Liver microsomal stability, human; type: in vitro ADME; details: pooled liver microsomes, pH 7.4; human liver microsomes 0.5 mg/mL, 1 μM compound, NADPH, up to 45 min; read-out: Liver Microsomal Stability t½
Description: (§1) Compounds were subjected to the following assays to investigate liver microsomal stability and hepatocyte stability.
(§2) Pooled liver microsomes were purchased from a reputable commercial supplier and stored at −80° C. prior to use. Microsomes (final protein concentration 0.5 mg/mL), 0.1 M phosphate buffer pH 7.4 and test compound (final substrate concentration 1 μM; final DMSO concentration 0.25%) were pre-incubated at 37° C. prior to the addition of NADPH (final concentration 1 mM) to initiate the reaction. The final incubation volume was 50 μL. A control incubation was included for each compound tested where 0.1 M phosphate buffer pH 7.4 was added instead of NADPH (minus NADPH). Two control compounds were included with each species. All incubations were performed singularly for each test compound. Each compound was incubated for 0, 5, 15, 30 and 45 min. The control (minus NADPH) was incubated for 45 min only. The reactions were stopped by transferring incubate into acetonitrile at the appropriate time points, in a 1:3 ratio. The termination plates are centrifuged at 3,000 rpm for 20 min at 4° C. to precipitate the protein. Following protein precipitation, the sample supernatants were combined in cassettes of up to 4 compounds, internal standard added, and samples analysed by LC-MS/MS. From a plot of ln peak area ratio (compound peak area/internal standard peak area) against time, the gradient of the line was determined. Subsequently, half-life (t1/2) and intrinsic clearance (CLint) were calculated.

[3] = Liver microsomal stability, dog; type: in vitro ADME; details: pooled liver microsomes, pH 7.4; dog liver microsomes 0.5 mg/mL, 1 μM compound, NADPH, up to 45 min; read-out: Liver Microsomal Stability t½
Description: as §1, §2

[4] = Rat pharmacokinetics in vivo (IV 1 mg/kg, PO 10 mg/kg); design: species or system Male rats [Sprague Dawley (SD)]; details: male SD rat
Description: The pharmacokinetics of compounds were studied in vivo in rats at doses of 1 mg/kg (IV) and 10 mg/kg (PO).
Male rats [Sprague Dawley (SD)] surgically prepared with a jugular vein cannula were treated with experimental compounds via intravenous administration (IV; n=3; 1 mg/kg) or oral administration (PO; n=3; 10 mg/kg). Compounds were formulated as a solution in 40:60 dimethylacetamide:saline (IV administration) and a solution of 10% DMSO, 10% cremaphor in water (80%) (PO administration). […] Serial blood samples were collected via the cannula at 0.02, 0.08, 0.25, 0.5, 1, 2, 4, 6, 8 and 24 h post IV dosing of compound, and at 0.08, 0.25, 0.5, 1, 2, 4, 6, 8 and 24 h post oral dosing of compound, and plasma was prepared by centrifugation and stored immediately at −80° C. Samples were subsequently thawed, prepared for analysis by protein precipitation with acetonitrile, and analysed by tandem LCMS using electrospray ionisation using a matrix-matched calibration curve. PK parameters were calculated from the resulting data.

[5] = Hepatocyte stability, rat; type: in vitro ADME; details: cryopreserved pooled hepatocytes; rat hepatocytes 0.5×10^6 viable cells/mL, 3 μM compound, up to 60 min; read-out: Liver Hepatocyte Stability t½
Description: as §1
(§3) Hepatocyte Incubation: Experimental Procedure
(§4) Cryopreserved pooled hepatocytes were purchased from a reputable commercial supplier and stored in liquid nitrogen prior to use. Williams E media supplemented with 2 mM L-glutamine and 25 mM HEPES and test compound (final substrate concentration 3 μM; final DMSO concentration 0.25%) are pre-incubated at 37° C. prior to the addition of a suspension of cryopreserved hepatocytes (final cell density 0.5×10^6 viable cells/mL in Williams E media supplemented with 2 mM L-glutamine and 25 mM HEPES) to initiate the reaction. The final incubation volume is 500 μL. Two control compounds were included with each species, alongside appropriate vehicle control. The reactions are stopped by transferring 50 μL of incubate to 100 μL acetonitrile containing internal standard at the appropriate time points. Samples were removed at 6 time points (0, 5, 15, 30, 45 and 60 min) over the course of a 60 min experiment. The termination plates are centrifuged at 2500 rpm at 4° C. for 30 min to precipitate the protein. Following protein precipitation, the sample supernatants were combined in cassettes of up to 4 compounds and analysed using generic LC-MS/MS conditions. From a plot of ln peak area ratio (compound peak area/internal standard peak area) against time, the gradient of the line is determined. Subsequently, half-life (t½) and intrinsic clearance (CLint) were calculated.

[6] = Liver microsomal stability, rat; type: in vitro ADME; details: pooled liver microsomes, pH 7.4; rat liver microsomes 0.5 mg/mL, 1 μM compound, NADPH, up to 45 min; read-out: Liver Microsomal Stability t½
Description: as §1, §2

cell toxicity CC50 = type: cell-based; details: human; Hep-G2 cells; mean of at least two experiments; read-out: Cell Cytotoxicity CC50
[7] = Hepatocyte stability, dog; type: in vitro ADME; details: cryopreserved pooled hepatocytes; dog hepatocytes 0.5×10^6 viable cells/mL, 3 μM compound, up to 60 min; read-out: Liver Hepatocyte Stability t½
Description: as §1, §3, §4

[8] = Hepatocyte stability, human; type: in vitro ADME; details: cryopreserved pooled hepatocytes; human hepatocytes 0.5×10^6 viable cells/mL, 3 μM compound, up to 60 min; read-out: Liver Hepatocyte Stability t½
Description: as §1, §3, §4

Hep-G2 cells = experiment: cell toxicity CC50; type: cell-based; details: mean of at least two experiments, read-out: Cell Cytotoxicity CC50
[9] = RSV A2 in Hep-G2 cells, read-out: RSV A2 Plaque EC50
[10] = read-out: RSV A2 Plaque EC50, RSV A2 in Hep-G2 cells

Molecule | pEC50 [1, 9] | CC50 (Hep-G2 cells) | also measured
CCc1ccc(-c2nn3c(c2C(=O)N[C@H]2N=C(c4ccccc4)c4cccc(F)c4NC2=O)OCCC3)cn1 [Example 106, 2-(6-Ethylpyridin-3-yl)-N-[(3S)-9-fluoro-2-oxo-5-phenyl-1,3-dihydro-1,4-benzodiazepin-3-yl]-6,7-dihydro-5H-pyrazolo[5,1-b][1,3]oxazine-3-carboxamide] | – | – | pEC50 ([1]; human respiratory syncytial virus, HepG2, read-out: RSV A2 Plaque EC50, RSV A2 in Hep-G2 cells): 7.32; half-life at 1 μM [2]: 3.1 h; half-life at 1 μM [3]: 1.82 h; clearance ([4]; Sprague Dawley, plasma, IV 1 mg/kg): 14.6 mL/min/kg; half-life ([4]; Sprague Dawley, plasma, IV 1 mg/kg, read-out: IV t½ (converted)): 1.2 h; Vd ([4]; Sprague Dawley, plasma, IV 1 mg/kg, read-out: Vd): 0.7 L/kg; AUC(0-t) ([4]; Sprague Dawley, plasma, PO 10 mg/kg, read-out: PO AUClast): 5690 ng·h/mL; half-life ([4]; Sprague Dawley, plasma, PO 10 mg/kg, read-out: PO t½ (converted)): 3.6 h; Cmax ([4]; Sprague Dawley, plasma, IV 1 mg/kg, PO 10 mg/kg study, read-out: Cmax): 1030 ng/mL; concentration at 8 h ([4]; Sprague Dawley, plasma at 8 h, read-out: C 8 h): 271 ng/mL; F ([4]; PO 10 mg/kg vs IV 1 mg/kg): 59.4%; half-life at 3 μM [5]: 1.59 h; half-life at 1 μM [6]: 0.815 h; CC50 (cell toxicity CC50): > 25000 nM; half-life at 3 μM [7]: 2 h; half-life at 3 μM [8]: > 3.1 h
(5R)-2-(2-Fluoro-6-methylpyridin-3-yl)-5-methyl-N-[(3S)-2-oxo-5-phenyl-1,3-dihydro-1,4-benzodiazepin-3-yl]-6,7-dihydro-5H-pyrazolo[5,1-b][3,1]oxazine-3-carboxamide [Example 72] | 7.00 | > 25000 nM | –
N-[(3S)-9-fluoro-2- oxo-5-phenyl-1,3- dihydro-1,4- benzodiazepin-3-yl]- 2-(2-fluorophenyl)- 6-(pyrrolidin-1- ylmethyl)-6,7- dihydro-5H- pyrazolo[5,1- b][1,3]oxazine-3- carboxamide [Example 182] | 7.11 | 20100 nM | –
N-[(3S)-9-fluoro-2- oxo-5-phenyl-1,3- dihydro-1,4- benzodiazepin-3-yl]-2- (2-fluorophenyl)-6- (morpholin-4- ylmethyl)-6,7-dihydro- 5H-pyrazolo[5,1- b][1,3]oxazine-3- carboxamide [Example 173] | 7.04 | > 25000 nM | –
2-[2-Fluoro-4- (hydroxymethyl)phe- nyl]-N-[(3S)-9- fluoro-2-oxo-5- phenyl-1,3-dihydro- 1,4-benzodiazepin-3- yl]-6,7-dihydro-5H- pyrazolo[5,1- b][1,3]oxazine-3- carboxamide [Example 134] | 7.08 | > 25000 nM | –
N-[(3S)-9-fluoro-2- oxo-5-phenyl-1,3- dihydro-1,4- benzodiazepin-3-yl]- 2-(2-fluorophenyl)- 6-(hydroxymethyl)- 6,7-dihydro-5H- pyrazolo[5,1- b][1,3]oxazine-3- carboxamide [Example 110] | 7.29 | > 25000 nM | –
N-[(3S)-9-fluoro-2- oxo-5-phenyl-1,3- dihydro-1,4- benzodiazepin-3-yl]- 2-(2-fluorophenyl)- 6-(methoxymethyl)- 6,7-dihydro-5H- pyrazolo[5,1- b][1,3]oxazine-3- carboxmaide [Example 113] | 7.28 | > 19400 nM | –
O=C(N[C@H]1N=C(c2ccccc2)c2cccc(F)c2NC1=O)c1c(-c2c(F)cccc2F)nn2c1OCC(CO)C2 (single isomer, unassigned) [Example 129-2, (6S*)-2-(2,6-Difluorophenyl)-N-[(3S)-9-fluoro-2-oxo-5-phenyl-1,3-dihydro-1,4-benzodiazepin-3-yl]-6-(hydroxymethyl)-6,7-dihydro-5H-pyrazolo[5,1-b][1,3]oxazine-3-carboxamide] | – | > 25000 nM | pEC50 [1, 10]: 7.14
CCNc1ccc(-c2nn3c(c2C(=O)N[C@H]2N=C(c4ccccc4)c4cccc(F)c4NC2=O)OCCC3)c(F)n1 [Example 3, 2-[6-(Ethylamino)-2-fluoropyridin-3-yl]-N-[(3S)-9-fluoro-2-oxo-5-phenyl-1,3-dihydro-1,4-benzodiazepin-3-yl]-6,7-dihydro-5H-pyrazolo[5,1-b][1,3]oxazine-3-carboxamide] | 7.70 | > 25000 nM | –
tert-butyl N-[3- [[(3S)-9-fluoro-2- oxo-5-phenyl-1,3- dihydro-1,4- benzodiazepin-3- yl]carbamoyl]-2-(2- fluorophenyl)-6,7- dihydro-5H- pyrazolo[5,1- b][1,3]oxazin-6-yl]- N-methylcarbamate [Example 107] | 7.03 | > 25000 nM | –
(5R)-2-[1- (Difluoromethyl)pyra- zol-4-yl]-N-[(3S)-9- fluoro-2-oxo-5- phenyl-1,3-dihydro- 1,4-benzodiazepin-3- yl]-5-methyl-6,7- dihydro-5H- pyrazolo[5,1- b][1,3]oxazine-3- carboxamide [Example 120] | 7.01 | > 25000 nM | –
O=C(N[C@H]1N=C(c2ccccc2)c2cccc(F)c2NC1=O)c1c(-c2ccccc2F)nn2c1OC(CO)CC2 (stereo partly drawn) [Example 123, N-[(3S)-9-Fluoro-2-oxo-5-phenyl-1,3-dihydro-1,4-benzodiazepin-3-yl]-2-(2-fluorophenyl)-5-(hydroxymethyl)-6,7-dihydro-5H-pyrazolo[5,1-b][1,3]oxazine-3-carboxamide] | 7.10 | > 25000 nM | –
O=C(N[C@H]1N=C(c2ccccc2)c2cccc(F)c2NC1=O)c1c(-c2ccccc2F)nn2c1OC(CO)CC2 (single isomer, unassigned) [Example 190-2, (5S*)-2-(2-Fluorophenyl)-5-(hydroxymethyl)-N-[(3S)-9-fluoro-2-oxo-5-phenyl-1,3-dihydro-1,4-benzodiazepin-3-yl]-6,7-dihydro-5H-pyrazolo [5,1-b][1,3]oxazine-3-carboxamide] | – | > 25000 nM | pEC50 [1, 10]: 6.81
